From patent US6562809B1, “3-bicycloindole compounds” (NPS Allelix Corp., priority 1998, dated 2003) come the findings set out here.

Assay [1] addresses T1, 5-HT1D receptor (Homo sapiens, UniProt P28221).
T1 construct: expressed in transfected cells
Briefly: Binding affinity, 3H-serotonin displacement from membranes of cells expressing 5-HT1D. Conditions: 100 nM of test compound; 3H-serotonin 1 nM; 60 minute incubation at 22° C.; read-out: percent inhibition of binding of the radioligand at the 5-HT1D receptor. As for the experimental part: (§1) Selected compounds of the previous examples, as well as reference compounds were evaluated for binding affinity using cell types receptive specifically to 5-HT1D and 5-HT1B ligands. The assay protocol generally entailed the incubation of membranes prepared from cells expressing the 5-HT1D or 5-HT1B subtype of 5-HT receptors with ^3H-serotonin (1 nM for 5-HT1D and 2.5 nM for 5-HT1B). Specific concentrations of the test compound were incubated with the radioligand and the membrane homogenates prepared from the recombinant cells. After a 60 minute incubation at 22° C., the incubation was terminated by vacuum filtration. The filters were washed with buffer and counted for radioactivity using liquid scintillation spectroscopy. The affinity of the test compound for the 5-HT1D receptor is expressed as the amount (in percent) of binding of the radioligand that is inhibited in the presence of 100 nM of test compound. A greater percent inhibition indicates greater affinity for the 5-HT1D receptor.

Another assay deals with T2, 5-HT1B receptor (Homo sapiens, UniProt P28222).
T2 construct: expressed in transfected cells
Briefly: Binding affinity, 3H-serotonin displacement from membranes of cells expressing 5-HT1B. Conditions: 3H-serotonin 2.5 nM; 60 minute incubation at 22° C.; 100 nM test compound given only for 5-HT1D; read-out: percent inhibition at the 5-HT1B receptor. As for the experimental part: as §1

For assay [2], the target named is T1, 5-HT1D receptor. Briefly: Functional assay, inhibition of forskolin-stimulated adenyl cyclase (cAMP) in CHO Pro 5 cells. It is filed as cell-based. As to conditions: CHO cells stably expressing the 5-HT1D receptor; concentrations of 100 nM and 10 μM. As for the experimental part:
The 5HT1D and 5HT1B receptor subtypes respond to serotonin and other agonists by reducing adenyl cyclase mediated production of cyclic AMP. Particular test compounds were assayed for their ability to inhibit adenyl cyclase activity using the procedure described below. Forskolin was used to elevate the basal adenyl cyclase activity.
Compounds acting as antagonists at the 5HT1D and 5HT1B receptor subtypes will antagonize the agonist effect of serotonin and thus, will block the serotonin-induced inhibition of forskolin-stimulated adenyl cyclase activity. […]
The culture media of each well was removed, and the wells were washed once with serum free media. […] Basal adenyl cyclase activity was determined from wells with only SFM+IBMX media added.
The cells were then incubated at 37° C. for 30 minutes in a CO2 incubator. […] The pellets were discarded and the supernatants were stored at 4° C. until assayed for cAMP concentration. cAMP content for each extract was determined in duplicate by EIA (enzyme-immunoassay) using the Amersham Biotrak cAMP EIA kit (Amersham RPN 225).
Total inhibition (Io) of forskolin-stimulated adenyl cyclase activity by serotonin was determined as the difference in concentration of cAMP in the forskolin-treated cells (Cf) and serotonin-forskolin treated cells (Cd). […]

Some results are limits rather than exact numbers.

T2 sequence (P28222 whole entry): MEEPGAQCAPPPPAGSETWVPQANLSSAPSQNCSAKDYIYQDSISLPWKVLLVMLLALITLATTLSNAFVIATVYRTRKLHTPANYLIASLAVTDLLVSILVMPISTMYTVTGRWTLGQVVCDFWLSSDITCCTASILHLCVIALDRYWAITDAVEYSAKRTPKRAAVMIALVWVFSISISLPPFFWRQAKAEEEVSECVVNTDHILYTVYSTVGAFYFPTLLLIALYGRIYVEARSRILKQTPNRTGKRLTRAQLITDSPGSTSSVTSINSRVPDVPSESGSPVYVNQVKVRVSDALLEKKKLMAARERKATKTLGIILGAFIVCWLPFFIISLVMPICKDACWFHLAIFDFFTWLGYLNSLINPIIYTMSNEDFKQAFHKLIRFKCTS
T1 sequence (P28221 whole entry): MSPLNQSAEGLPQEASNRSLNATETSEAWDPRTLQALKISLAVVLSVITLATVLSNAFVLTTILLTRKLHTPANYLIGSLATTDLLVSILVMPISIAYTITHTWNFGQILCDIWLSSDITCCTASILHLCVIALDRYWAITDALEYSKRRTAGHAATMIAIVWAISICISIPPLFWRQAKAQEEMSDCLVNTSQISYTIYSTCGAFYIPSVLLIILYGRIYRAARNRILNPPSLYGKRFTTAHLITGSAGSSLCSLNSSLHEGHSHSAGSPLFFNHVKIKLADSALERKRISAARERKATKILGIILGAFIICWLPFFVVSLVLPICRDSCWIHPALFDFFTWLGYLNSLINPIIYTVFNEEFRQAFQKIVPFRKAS

What is called inhibition is the change of the read-out against control, counted positive when it falls. Turning to `OC1(c2ccc3[nH]cc(C4=CCN5CCCC5C4)c3c2)CCOCC1` [Example 7, 4-{[3-(8a-R,S)-1,2,3,5,8,8a-Hexahydro-7-indolizinyl]-1H-indol-5-yl}tetrahydro-2H-pyran-4-ol], the inhibition at 0.1 µM was greater than 75% at 5-HT1D receptor [1] and less than 50% on 5-HT1B receptor.

In the case of `CC1=C(c2c[nH]c3ccc(C(C)C)cc23)CC2CCCN2C1` [Example 6, 5-Isopropyl-3-[(8a,R,S)-6-methyl-1,2,3,5,8,8a-hexahydro-7-indolizinyl]-1H-indole], the inhibition at 0.1 µM on 5-HT1D receptor [1] was greater than 75%; on 5-HT1B receptor, less than 50%.

`C1=C(c2ccc3[nH]cc(C4=CC5CCCN5CC4)c3c2)CCCC1` [Example 8d, 5-(Cyclohexen-1-yl)-3-[(8a-R,S)-1,2,3,5,6,8a-hexahydro-7-indolizinyl]-1H-indole]: the inhibition at 0.1 µM on 5-HT1D receptor [1] is greater than 75%.

For `C1=C(c2ccc3[nH]cc(C4=CCN5CCCC5C4)c3c2)CCCC1` [Example 8c, 5-(Cyclohexen-1-yl)-3-[(8a-R,S)-1,2,3,5,8,8a-hexahydro-7-indolizinyl]-1H-indole], the results for the inhibition at 0.1 µM on 5-HT1D receptor [1] and on 5-HT1B receptor were greater than 75% and less than 50%, respectively.

As to `c1cc2[nH]cc(C3CCN4CCCC4C3)c2cc1C1CCOCC1` [Example 9g, 5-(Tetrahydropyran-4-yl)-[(7-R,S)(8a-R,S)-octahydro-7-indolizinyl]-1H-indole], the inhibition at 0.1 µM on 5-HT1D receptor [1] is greater than 75%.

Take `C1=C(c2ccc3[nH]cc(C4=CCN5CCCC5C4)c3c2)CCSC1` [Example 8e, 5-(5,6-Dihydro-2H-thiopyran-4-yl)-3-[(8a-R,S)-1,2,3,5,8,8a-hexahydro-7-indolizinyl]-1H-indole]: the inhibition at 0.1 µM is greater than 75% on 5-HT1D receptor [1] and less than 50% at 5-HT1B receptor.

Take `C1=C(c2ccc3[nH]cc(C4=CC5CCCN5CC4)c3c2)CCSC1` [Example 8f, 5-(5,6-Dihydro-2H-thiopyran-4-yl)-3-[(8a-R,S)-1,2,3,5,6,8a-hexahydro-7-indolizinyl]-1H-indole]: the inhibition at 0.1 µM on 5-HT1D receptor [1] is greater than 75%.

With `Brc1ccc2[nH]cc(C3=CCN4CCCC4C3)c2c1` [Example 3e, 5-Bromo-3-[(8a-R,S)-1,2,3,5,8,8a-hexahydro-7-indolizinyl]-1H-indole], the inhibition at 0.1 µM at 5-HT1D receptor [1] is greater than 75%.

Regarding `C1=C(c2c[nH]c3ccc(OC4CCCCC4)cc23)CC2CCCN2C1` [Example 3f, 5-Cyclohexyloxy-3-[(8a-R,S)-1,2,3,5,8,8a-hexahydro-7-indolizinyl]-1H-indole], the inhibition at 0.1 µM on 5-HT1D receptor [1] was greater than 75%.

`OC1(c2ccc3[nH]cc(C4=CCN5CCCC5C4)c3c2)CCCCC1` [Example 3h, 1-{[3-(8a-R,S)-1,2,3,5,8,8a-Hexahydro-7-indolizinyl]-1H-indol-5-yl}cyclohexanol]: the inhibition at 0.1 µM is greater than 75% at 5-HT1D receptor [1] and less than 50% at 5-HT1B receptor.

In the case of `Cc1ccc2[nH]cc(C3=CCN4CCCC4C3)c2c1` [Example 3c, 5-Methyl-3-[(8a-R,S)-1,2,3,5,8,8a-hexahydro-7-indolizinyl]-1H-indole], the inhibition at 0.1 µM at 5-HT1D receptor [1] is greater than 75%; on 5-HT1B receptor, less than 50%.

With `CC(C)c1ccc2[nH]cc(C3CCN4CCCC4C3)c2c1` (single isomer, unassigned) [Example 9c, 5-Isopropyl-3-[(7R or 7S)(8a-R,S)-octahydro-7-indolizinyl]-1H-indole], the inhibition at 0.1 µM at 5-HT1D receptor [1] is greater than 75%; on 5-HT1B receptor, less than 50%.

Consider `COc1ccc2[nH]cc(C3=CCN4CCCC4C3)c2c1` [Example 3b, 5-Methoxy-3-[(8a-R,S)-1,2,3,5,8,8a-hexahydro-7-indolizinyl]-1H-indole], for which the values for the inhibition at 0.1 µM on 5-HT1D receptor [1] and on 5-HT1B receptor were greater than 75% and less than 50%, respectively.

In the case of `C1=C(c2c[nH]c3ccc(-c4cccs4)cc23)CC2CCCN2C1` [Example 3g, 5-(2-Thienyl)-3-[(8a-R,S)-1,2,3,5,8,8a-hexahydro-7-indolizinyl]-1H-indole], the inhibition at 0.1 µM on 5-HT1D receptor [1] was greater than 75%.

Turning to `C1=C(c2ccc3[nH]cc(C4=CC5CCCN5CC4)c3c2)CCOC1` [Example 8b, 5-(5,6-Dihydro-2H-pyran-4-yl)-3-[(8a-R,S)-1,2,3,5,6,8a-hexahydro-7-indolizinyl]-1H-indole], at 5-HT1D receptor [1], the inhibition at 0.1 µM was greater than 75%.

Turning to `C1=C(c2ccc3[nH]cc(C4=CCN5CCCC5C4)c3c2)CCOC1` [Example 8a, 5-(5,6-Dihydro-2H-pyran-4-yl)-3-[(8a-R,S)-1,2,3,5,8,8a-hexahydro-7-indolizinyl]-1H-indole], the inhibition at 0.1 µM at 5-HT1D receptor [1] is greater than 75%.

On to `CC(C)c1ccc2[nH]cc(C3=CCN4CCCC4C3)c2c1` [Example 3d, 5-Isopropyl-3-[(8a-R,S)-1,2,3,5,8,8a-hexahydro-7-indolizinyl]-1H-indole], for which the inhibition at 0.1 µM was greater than 75% on 5-HT1D receptor [1] and less than 50% at 5-HT1B receptor. At 5-HT1D receptor [2], the “forskolin stimulated production of cAMP (agonist activity)” value was “decrease”.

Consider `c1csc(-c2ccc3[nH]cc(C4CCN5CCCC5C4)c3c2)c1` [Example 14c, 3-[(7-R,S)(8a-R,S)-Octahydro-7-indolizinyl]-5-(2-thienyl)-1H-indole], for which the inhibition at 0.1 µM was greater than 75% at 5-HT1D receptor [1] and less than 50% at 5-HT1B receptor. The “forskolin stimulated production of cAMP (agonist activity)” value on 5-HT1D receptor [2] was “decrease”.
